From US12187742B2 (XRAD Therapeutics, Inc., priority 2018, dated 2025)
Structures can show the parent of a compound that is named as a salt.

Legend:
[1] = target: ATM (Homo sapiens (Human), UniProt Q13315); test: ATM in Cell Western Assay (pKAP1 in etoposide-treated MCF-7 cells); format: cell-based
How it was run: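 Cells received compounds in a 10-dose, 3-fold series from a 1 μM final top concentration, then 100 μM etoposide, for 1 hr at 37° C. They were then fixed with paraformaldehyde and permeabilized with 0.1% Triton X-100. After immunostaining, plates were scanned on an infrared imager.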

[2] = target: DNA-PK (Homo sapiens (Human), UniProt P78527); test: DNA-PK Enzyme-Linked Immunosorbent Assay (phosphorylation of GST-p53 (1-101) peptide); format: biochemical; details: ELISA
How it was run: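 ELISA with plate-bound GST-p53 (1-101) phosphorylated by DNA-PK (0.1 μg/mL final) with 20 μM ATP for 1 h at 25 °C. Compounds tested over 10 3-fold doses from 100 nM top final. Phospho-p53 Ser15 detected by antibody, HRP and TMB, absorbance at 450 nm.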

[3] = MCF-7 cells, etoposide 100 μM, 1 hr, pKAP1 readout
[4] = pKAP1 in etoposide-treated MCF-7 cells

Chain of ATM (Q13315 whole entry): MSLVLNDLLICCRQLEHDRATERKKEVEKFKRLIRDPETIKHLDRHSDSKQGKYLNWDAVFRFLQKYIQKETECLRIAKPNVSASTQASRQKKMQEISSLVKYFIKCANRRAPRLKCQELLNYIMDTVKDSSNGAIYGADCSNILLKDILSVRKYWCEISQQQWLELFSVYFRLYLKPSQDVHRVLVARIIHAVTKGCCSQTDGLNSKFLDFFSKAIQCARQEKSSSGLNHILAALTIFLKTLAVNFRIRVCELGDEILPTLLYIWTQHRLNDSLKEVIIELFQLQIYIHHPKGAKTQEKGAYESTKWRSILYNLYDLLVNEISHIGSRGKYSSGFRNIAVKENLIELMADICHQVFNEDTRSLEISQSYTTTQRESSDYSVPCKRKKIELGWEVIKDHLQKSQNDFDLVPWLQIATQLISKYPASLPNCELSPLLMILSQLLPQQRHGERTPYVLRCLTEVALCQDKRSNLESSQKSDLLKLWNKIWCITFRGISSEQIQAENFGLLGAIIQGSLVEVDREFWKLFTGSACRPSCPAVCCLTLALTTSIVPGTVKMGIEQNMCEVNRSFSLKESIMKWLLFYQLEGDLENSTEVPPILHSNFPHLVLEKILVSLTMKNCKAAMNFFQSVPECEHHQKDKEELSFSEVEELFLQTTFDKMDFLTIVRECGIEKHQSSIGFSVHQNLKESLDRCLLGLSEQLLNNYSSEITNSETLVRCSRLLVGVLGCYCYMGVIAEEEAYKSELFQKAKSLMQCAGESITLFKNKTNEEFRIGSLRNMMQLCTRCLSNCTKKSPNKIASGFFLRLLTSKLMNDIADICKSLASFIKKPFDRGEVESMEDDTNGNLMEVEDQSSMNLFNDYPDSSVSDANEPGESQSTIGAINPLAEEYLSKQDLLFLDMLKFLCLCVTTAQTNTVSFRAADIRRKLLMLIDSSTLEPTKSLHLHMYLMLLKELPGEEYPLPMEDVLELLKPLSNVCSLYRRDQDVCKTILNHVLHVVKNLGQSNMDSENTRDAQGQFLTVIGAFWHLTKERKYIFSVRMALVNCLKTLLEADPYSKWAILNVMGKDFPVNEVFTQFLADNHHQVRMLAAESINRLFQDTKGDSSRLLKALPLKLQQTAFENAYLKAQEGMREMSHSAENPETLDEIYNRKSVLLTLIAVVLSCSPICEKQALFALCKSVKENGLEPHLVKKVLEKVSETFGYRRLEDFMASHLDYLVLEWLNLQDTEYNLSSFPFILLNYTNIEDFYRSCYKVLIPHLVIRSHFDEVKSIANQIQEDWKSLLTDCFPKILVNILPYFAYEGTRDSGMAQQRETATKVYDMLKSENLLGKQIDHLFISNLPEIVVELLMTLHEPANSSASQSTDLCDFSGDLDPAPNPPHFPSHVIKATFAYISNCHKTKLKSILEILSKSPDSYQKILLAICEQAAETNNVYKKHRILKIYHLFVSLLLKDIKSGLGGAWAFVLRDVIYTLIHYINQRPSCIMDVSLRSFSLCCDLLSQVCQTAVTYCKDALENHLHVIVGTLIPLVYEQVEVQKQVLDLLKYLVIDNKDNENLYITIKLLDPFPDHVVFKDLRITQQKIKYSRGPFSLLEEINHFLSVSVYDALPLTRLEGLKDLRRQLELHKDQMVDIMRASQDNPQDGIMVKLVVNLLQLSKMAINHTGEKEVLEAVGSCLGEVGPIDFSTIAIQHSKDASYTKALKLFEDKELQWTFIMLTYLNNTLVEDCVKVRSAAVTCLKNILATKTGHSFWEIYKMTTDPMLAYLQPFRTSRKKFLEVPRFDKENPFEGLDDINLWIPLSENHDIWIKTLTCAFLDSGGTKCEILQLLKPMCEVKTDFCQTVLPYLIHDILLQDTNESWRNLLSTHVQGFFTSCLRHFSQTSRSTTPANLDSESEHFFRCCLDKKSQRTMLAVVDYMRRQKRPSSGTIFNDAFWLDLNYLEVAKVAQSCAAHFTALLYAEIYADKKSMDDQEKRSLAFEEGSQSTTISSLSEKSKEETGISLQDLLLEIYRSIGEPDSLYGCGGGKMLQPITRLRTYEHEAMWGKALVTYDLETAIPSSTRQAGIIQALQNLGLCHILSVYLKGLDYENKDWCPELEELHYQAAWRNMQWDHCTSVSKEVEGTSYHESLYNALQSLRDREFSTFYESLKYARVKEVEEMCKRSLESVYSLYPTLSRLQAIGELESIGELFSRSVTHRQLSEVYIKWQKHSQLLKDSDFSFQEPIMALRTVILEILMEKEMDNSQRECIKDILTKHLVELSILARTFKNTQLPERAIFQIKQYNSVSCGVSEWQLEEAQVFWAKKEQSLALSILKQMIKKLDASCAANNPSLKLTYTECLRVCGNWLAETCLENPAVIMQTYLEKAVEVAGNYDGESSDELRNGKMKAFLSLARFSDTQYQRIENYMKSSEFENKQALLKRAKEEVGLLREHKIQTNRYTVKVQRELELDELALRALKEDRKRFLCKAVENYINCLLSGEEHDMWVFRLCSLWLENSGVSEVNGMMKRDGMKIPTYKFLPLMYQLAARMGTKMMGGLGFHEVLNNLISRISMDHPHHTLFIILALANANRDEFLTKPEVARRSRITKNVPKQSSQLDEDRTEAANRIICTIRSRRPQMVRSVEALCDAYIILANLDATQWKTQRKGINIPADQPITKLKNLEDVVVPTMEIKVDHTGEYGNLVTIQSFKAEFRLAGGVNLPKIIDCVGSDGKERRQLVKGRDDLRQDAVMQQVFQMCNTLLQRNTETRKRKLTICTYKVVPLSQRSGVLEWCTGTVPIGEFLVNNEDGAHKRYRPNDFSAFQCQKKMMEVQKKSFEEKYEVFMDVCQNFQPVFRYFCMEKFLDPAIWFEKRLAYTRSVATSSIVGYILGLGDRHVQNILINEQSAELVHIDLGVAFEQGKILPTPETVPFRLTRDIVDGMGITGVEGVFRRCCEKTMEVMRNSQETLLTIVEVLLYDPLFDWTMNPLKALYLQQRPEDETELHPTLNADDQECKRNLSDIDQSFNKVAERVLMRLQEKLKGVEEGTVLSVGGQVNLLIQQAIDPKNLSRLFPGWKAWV

Compound | IC50 [1, 3] [nM] | IC50 ([2]; ATP 20 μM) [nM] | IC50 [1, 4] [nM] | IC50 ([2]; 20 μM ATP) [nM]
CN(C)CCCOc1ncc(-c2ccc3ncc4c(c3c2)C2(CCC2)C(=O)N4C)cc1NS(=O)(=O)c1ccns1 [Example 188, N-(2-(3-(Dimethylamino)propoxy)-5-(3′-methyl-2′-oxo-2′,3′-dihydrospiro [cyclobutane-1,1′-pyrrolo [2,3-c]quinolin]-8′-yl)pyridin-3-yl) isothiazole-5-sulfonamide hydrochloride] | 1 to 100 | < 0.5 |  | 
CC(C)NCCOc1ncc(-c2cc3c(cc2F)ncc2c3[C@]3(C[C@H](c4ccccc4)C3)C(=O)N2C)cc1NS(C)(=O)=O [Example 414, cis-N-(5-(7′-Fluoro-3′-methyl-2′-oxo-3-phenyl-2′,3′-dihydrospiro[cyclobutane-1,1′-pyrrolo[2,3-c]quinolin]-8′-yl)-2-(2-(isopropylamino)ethoxy)pyridin-3-yl)methanesulfonamide hydrochloride] |  |  | 1 to 100 | 1 to 100
CN(C)CCCOc1ncc(-c2ccc3ncc4c(c3c2)C2(CCC2)C(=O)N4C)cc1NS(=O)(=O)c1cncc(Cl)c1 [Example 130, 5-Chloro-N-(2-(3-(dimethylamino)propoxy)-5-(3′-methyl-2′-oxo-2′,3′-dihydrospiro[cyclobulane-1,1′-pyrrolo[2,3-c]quinolin]-8′-yl)pyridin-3-ylpyridine-3-sulfonamide hydrochloride] | 1 to 100 | 1 to 100 |  | 
CN1C(=O)C2(CCC2)c2c1cnc1ccc(-c3cnc(N4CC(N5CCCC5)C4)c(NS(C)(=O)=O)c3)cc21 [Example 277, N-(5-(3′-Methyl-2′-oxo-2′,3′-dihydrospiro[cyclobutane-1,1′-pyrrolo[2,3-c]quinolin]-8′-yl)-2-(3-(pyrrolidin-1-yl)azetidin-1-yl)pyridin-3-yl)methanesulfonamide] | 1 to 100 | 1 to 100 |  | 
Cc1ccc(S(=O)(=O)Nc2cc(-c3ccc4ncc5c(c4c3)C3(CCC3)C(=O)N5C)cnc2N2CCC(N3CCCCC3)CC2)cn1 [Example 198, N-(2-([1,4′-Bipiperidin]-1′-yl)-5-(3′-methyl-2′-oxo-2′,3′-dihydrospiro[cyclobutane-1,1′-pyrrolo[2,3-c]quinolin]-8′-yl)pyridin-3-yl)-6-methylpyridine-3-sulfonamide hydrochloride] | 1 to 100 | < 0.5 |  | 
CCS(=O)(=O)Nc1cc(-c2cc3c4c(cnc3cc2F)N(C)C(=O)C42CCC2)cnc1N1CC(NC)C1 [Example 334] | 1 to 100 | 0.5 to 1 |  | 
COc1ncc(-c2ccc3ncc4c(c3c2)C2(CC2)C(=O)N4C)cc1NS(=O)(=O)c1ccc([N+](=O)[O-])cc1 [Example 12, N-(2-Methoxy-5-(3′-methyl-2′-oxo-2′,3′-dihydrospiro [cyclopropane-1,1′-pyrrolo[2,3-c]quinolin]-8′-yl)pyridin-3-yl)-4-nitrobenzenesulfonamide] | 1 to 100 | < 0.5 |  | 
CN1C(=O)C2(CCC2)c2c1cnc1ccc(-c3cnc(N4CCC(N5CCOCC5)CC4)c(NS(=O)(=O)N(C)C)c3)cc21 [Example 355, 8′-{5-[(Dimethylsulfamoyl)amino]-6-[4-(morpholin-4-yl)piperidin-1-yl]pyridin-3-yl}-3′-methyl-2′,3′-dihydrospiro[cyclobutane-1,1′-pyrrolo[2,3-c]quinoline]-2′-one] |  |  | 1 to 100 | 1 to 100
CC(C)NCCOc1ncc(-c2cc3c4c(cnc3cc2F)N(C)C(=O)C42CN(c3ccc(C(C)C)cc3)C2)cc1NS(C)(=O)=O [Example 530, N-(5-(7′-Fluoro-1-(4-isopropylphenyl)-3 methyl-2′-oxo-2′,3′-dihydrospiro [azetidine-3,1′-pyrrolo[2,3-c]quinolin]-8′-yl)-2-(2-(isopropylamino)ethoxy)pyridin-3-yl)methanesulfonamide] |  |  | 1 to 100 | 0.5 to 1
CC(C)NCCOc1ncc(-c2cc3c(cc2F)ncc2c3[C@]3(C[C@H](C(C)(C)O)C3)C(=O)N2C)cc1NS(C)(=O)=O [Example 456, cis-N-(5-(7′-Fluoro-3-(2-hydroxypropan-2-yl)-3′-methyl-2′-oxo-2′,3′-dihydrospiro[cyclobutane-1,1′-pyrrolo[2,3-c]quinolin]-8′-yl)-2-(2-(isopropylamino)ethoxy)pyridin-3-yl)methanesulfonamide] |  |  | 1 to 100 | 1 to 100
CN(C)c1ncc(-c2ccc3ncc4c(c3c2)C2(CCC2)C(=O)N4C)cc1NS(=O)(=O)c1ccccc1 [Example 10, N-(2-(Dimethylamino)-5-(3′-methyl-2′-oxo-2′,3′-dihydrospiro[cyclobutane-1,1′-pyrrolo[2,3-c]quinolin]-8′-yl)pyridin-3-yl)benzenesulfonamide] | 1 to 100 | < 0.5 |  | 
CC1CCN(S(=O)(=O)Nc2cc(-c3ccc4ncc5c(c4c3)C3(CCC3)C(=O)N5C)cnc2OCCCN(C)C)CC1 [Example 165, N-(2-(3-(Dimethylamino)propoxy)-5-(3′-methyl-2′-oxo-2′,3′-dihydrospiro[cyclobutane-1,1′-pyrrolo[2,3-c]quinolin]-8′-yl)pyridin-3-yl)-4-methylpiperidine-1-sulfonamide] | 1 to 100 | 1 to 100 |  | 

Next, values leading:

IC50 [1, 3] [nM] | IC50 ([2]; ATP 20 μM) [nM] | IC50 [1, 4] [nM] | IC50 ([2]; 20 μM ATP) [nM] | Compound
1 to 100 | 1 to 100 |  |  | CN1C(=O)C2(CCC2)c2c1cnc1cc(F)c(-c3cnc(N4CC(N(C)C)C4)c(NS(=O)(=O)c4ccccc4)c3)cc21 [Example 324, N-(2-(3-(Dimethylamino)azetidin-1-yl)-5-(7′-fluoro-3′-methyl-2′-oxo-2′,3′-dihydrospiro[cyclobutane-1,1′-pyrrolo[2,3-c]quinolin]-8′-yl)pyridin-3-yl)benzenesulfonamide hydrochloride]
1 to 100 | 1 to 100 |  |  | CN(C)CCCOc1ncc(-c2ccc3ncc4c(c3c2)C2(CCC2)C(=O)N4C)cc1NS(=O)(=O)c1cc(Cl)cc(C(F)(F)F)c1 [Example 154, 3-Chloro-N-(2-(3-(dimethylamino)propoxy)-5-(3′-methyl-2′-oxo-2′,3′-dihydrospiro[cyclobutane-1,1′-pyrrolo[2,3-c]quinolin]-8′-yl)pyridin-3-yl)-5-(trifluoromethyl)benzenesulfonamide hydrochloride]
1 to 100 | < 0.5 |  |  | Cc1ccc(S(=O)(=O)Nc2cc(-c3ccc4ncc5c(c4c3)C3(CCC3)C(=O)N5C)cnc2N2CCC(N(C)C)CC2)cc1 [Example 178, N-(2-(4-(Dimethylamino)piperidin-1-yl)-5-(3′-methyl-2′-oxo-2′,3′-dihydrospiro[cyclobutane-1,1′-pyrrolo[2,3-c]quinolin]-8′-yl)pyridin-3-yl)-4-methylbenzenesulfonamide 2,2,2-trifluoroacetate]
1 to 100 | 1 to 100 |  |  | CN(C)CCCOc1ncc(-c2ccc3ncc4c(c3c2)C2(CC2)C(=O)N4C)cc1NS(=O)(=O)C1CC1 [Example 29, N-(2-(3-(Dimethylamino)propoxy)-5-(3′-methyl-2′-oxo-2′,3′-dibydrospiro [cyclopropane-1,1′-pyrrolo[2,3-c]quinolin]-8′-yl)pyridin-3-yl) cyclopropanesulfonamide]
0.5 to 1 | < 0.5 |  |  | CN(C)CCCOc1ncc(-c2ccc3ncc4c(c3c2)C2(CC2)C(=O)N4C)cc1NS(=O)(=O)c1ccsc1 [Example 92, N-(2-(3-(Dimethylamino)propoxy)-5-(3′-methyl-2′-oxo-2′,3′-dihydrospiro [cyclopropane-1,1′-pyrrolo[2,3-c]quinolin]-8′-yl)pyridin-3-yl)thiophene-3-sulfonamide]
0.5 to 1 | 0.5 to 1 |  |  | CCN(C)S(=O)(=O)Nc1cc(-c2ccc3ncc4c(c3c2)C2(CC2)C(=O)N4C)cnc1N1CCC(N2CCCCC2)CC1 [Example 214]
0.5 to 1 | < 0.5 |  |  | CN(C)CCCOc1ncc(-c2ccc3ncc4c(c3c2)C2(CC2)C(=O)N4C)cc1NS(=O)(=O)c1cccc(C#N)c1 [Example 96, 3-Cyano-N-(2-(3-(dimethylamino)propoxy)-5-(3′-methyl-2′-oxo-2′,3′-dihydrospiro[cyclopropane-1,1′-pyrrolo[2,3-c]quinolin]-8′-yl)pyridin-3-yl)benzenesulfonamide]
